# From patent publication US20260250269A1, “APOPTOSIS INHIBITOR SALTS FOR CANCER” (priority 2022, published 2026)
# Values joined by “and” are separate entries in the source; they are usually repeats but may differ in a detail not shown here. Equal values may be shown once. Read-outs that look alike come from different tables or passages of the source.
# What was measured:
# [1] = for Solubility: 24 hours
# [2] = Solid-state thermal stability of the pamoate salt Form B; assay type: physicochemical
# Method: Form B was placed at 25° C./92% relative humidity (RH) in an open container, at 40° C./75% RH in an open container, and at 60° C. in a tight container for 1 week. Samples were characterized by XRPD and HPLC and inspected for appearance including color change.
# [3] = Competitive equilibration experiments of Form A and Form B; assay type: physicochemical; details: among Forms A-J
# Method: About 5 mg of Form A and about 5 mg of the mixture of Form A and Form B were added to 0.2 mL saturated solutions in following solvents: water, ethanol, acetone, acetonitrile, ethyl acetate, and pyridine/water (1/9 v/v). Obtained suspensions were stirred at 25° C. and 50° C., respectively, for a duration between 4 days to 4 weeks. Solid parts (wet cakes) were isolated by centrifugation filtration and investigated by XRPD.
# [4] = Compression, dry grinding and wet granulation simulation experiments; assay type: physicochemical
# Method: Compression: About 50 mg of Form B was compressed for 5 minutes under 10 MPa with a hydraulic press. Potential form change and degree of crystallinity were evaluated by XRPD.
# Dry Grinding: About 20 mg of Form B was ground manually with a mortar and a pestle for 5 min. Potential form change and degree of crystallinity were evaluated by XRPD.
# Wet Granulation: Water or ethanol was added drop wise to about 20 mg of Form B until the sample was wetted sufficiently. Wet sample was ground gently with a mortar and a pestle for 3 min. Post granulation sample was dried under ambient condition for 10 min. Potential form change and degree of crystallinity were evaluated by XRPD.
# [5] = Hygroscopicity of Form B by dynamic vapor sorption (DVS); assay type: physicochemical
# Method: Water sorption and desorption behavior of Form B was investigated by dynamic vapor sorption (DVS) at 25° C. with a cycle of 40-0-95-0-40% RH, dm/dt 0.002, minimum equilibration time of 60 min and maximum equilibration time 360 min.
# [6] = 25° C./92% RH open container, 1 week
# [7] = 40° C./75% RH open container, 1 week
# [8] = 60° C. in a tight container, 1 week
# [9] = relative humidity 0.0 at 25° C.
# [10] = relative humidity 10.0 at 25° C.
# [11] = relative humidity 20.0 at 25° C.
# [12] = relative humidity 30.0 at 25° C.
# [13] = relative humidity 40.0 at 25° C.
# [14] = relative humidity 50.0 at 25° C.
# [15] = relative humidity 60.0 at 25° C.
# [16] = relative humidity 70.0 at 25° C.
# [17] = relative humidity 80.0 at 25° C.
# [18] = relative humidity 90.0 at 25° C.
# [19] = relative humidity 95.0 at 25° C.
structure (smiles),measurement,setting,value
COCCn1c2c([n+](Cc3cnccn3)c1C)C(=O)c1ccccc1C2=O.COCCn1c2c([n+](Cc3cnccn3)c1C)C(=O)c1ccccc1C2=O.O=C([O-])c1cc2ccccc2c(Cc2c(O)c(C(=O)[O-])cc3ccccc23)c1O [Form B],Form change by XRPD after solubility test,[1],no form change
same,XRPD of residual solids,[1]; after solubility test in mouse plasma,Form B
same,XRPD of residual solids,[1]; after solubility test in pH 7.4 PBS buffer,Form B
same,XRPD of residual solids,[1]; after solubility test in water,Form B
same,Solubility,"[1]; mouse plasma, 37° C.",342 µg/mL and 344 µg/mL
same,Solubility,"[1]; pH 7.4, PBS buffer, 37° C.",78 µg/mL
same,Solubility,"[1]; water, 37° C.",14 µg/mL and 13 µg/mL
same,Solubility (in words),"[1]; water, PBS buffer, mouse plasma, 37° C.",comparable low solubility
same,Appearance (Color) change,[2]; [6],None
same,Purity by HPLC,[2]; [6],99.4%
same,XRPD,[2]; [6],Form B
same,Physical and chemical stability,"[2]; 25° C./92% RH, 40° C./75% RH, 60° C., 1 week",physically stable and chemically stable
same,Appearance (Color) change,[2]; [7],None
same,Purity by HPLC,[2]; [7],99.5%
same,XRPD,[2]; [7],Form B
same,Appearance (Color) change,[2]; [8],none
same,Purity by HPLC,[2]; [8],99.4%
same,XRPD,[2]; [8],Form B
same,Appearance (Color) change,[2]; Initial,None
same,Purity by HPLC,[2]; Initial,99.3%
same,XRPD,[2]; Initial,Form B
same,Relative stability among solid forms,[3],most stable form among Forms A-J
same,Form change and crystallinity by XRPD after compression,"[4]; 5 minutes under 10 MPa, hydraulic press",no form change and no obvious crystallinity decrease
same,Form change and crystallinity by XRPD after dry grinding,[4]; ground manually with mortar and pestle for 5 min,no form change and slight crystallinity decrease
same,Form change and crystallinity by XRPD after wet granulation,"[4]; water or ethanol, ground 3 min, dried 10 min",no form change and no obvious crystallinity decrease
same,Solid form by XRPD after the DVS test,[5],still Form B
same,Hygroscopicity (in words),[5]; DVS at 25° C.,slightly hygroscopic
same,1st desorption weight % change,[5]; [9],0.02 weight %
same,1st sorption weight % change,[5]; [9],0.02 weight %
same,2nd desorption weight % change,[5]; [9],0.00 weight %
same,2nd sorption weight % change,[5]; [9],0.00 weight %
same,1st desorption weight % change,[5]; [10],0.06 weight %
same,1st sorption weight % change,[5]; [10],0.06 weight %
same,2nd desorption weight % change,[5]; [10],0.05 weight %
same,2nd sorption weight % change,[5]; [10],0.04 weight %
same,1st desorption weight % change,[5]; [11],0.09 weight %
same,1st sorption weight % change,[5]; [11],0.08 weight %
same,2nd desorption weight % change,[5]; [11],0.08 weight %
same,2nd sorption weight % change,[5]; [11],0.06 weight %
same,1st desorption weight % change,[5]; [12],0.13 weight %
same,1st sorption weight % change,[5]; [12],0.11 weight %
same,2nd desorption weight % change,[5]; [12],0.10 weight %
same,2nd sorption weight % change,[5]; [12],0.08 weight %
same,1st desorption weight % change,[5]; [13],0.16 weight %
same,1st sorption weight % change,[5]; [13],0.12 weight %
same,2nd desorption weight % change,[5]; [13],0.13 weight %
same,2nd sorption weight % change,[5]; [13],0.10 weight %
same,1st sorption weight % change,[5]; [14],0.15 weight %
same,2nd desorption weight % change,[5]; [14],0.16 weight %
same,1st sorption weight % change,[5]; [15],0.17 weight %
same,2nd desorption weight % change,[5]; [15],0.18 weight %
same,1st sorption weight % change,[5]; [16],0.20 weight %
same,2nd desorption weight % change,[5]; [16],0.21 weight %
same,1st sorption weight % change,[5]; [17],0.23 weight %
same,2nd desorption weight % change,[5]; [17],0.25 weight %
same,1st sorption weight % change,[5]; [18],0.35 weight %
same,2nd desorption weight % change,[5]; [18],0.38 weight %
same,1st sorption weight % change,[5]; [19],0.64 weight %
same,2nd desorption weight % change,[5]; [19],0.64 weight %
same,Water absorbed,[5]; up to 95% RH at 25° C.,about 0.64%
